According to patent publication US6426366B1, “Pharmaceutical compositions comprising tyrphostins” (priority 1996, dated 2002):
Entries after “also recorded” stand apart in the source; their conditions may differ. Read-outs that look alike come from different tables or passages of the source.

Tests used:
CD1 mice [1] = experiment: Reduction of doxorubicin-caused mouse mortality; assay type: in vivo
Experimental: (§1) 6 weeks old female CD1 mice were divided into the following groups:
i. Mice injected intraperitoneally (i.p.) with doxorubicin (20 mg/kg);
CD1 mice were divided into the following five groups:
i. Mice receiving, a single i.p. injection of 20 mg/kg of doxorubicin;
iii. Mice receiving a single i.p. injection of 20 mg/kg of AG1782 and two hours later an i.p. injection of 20 mg/kg of doxorubicin;
iv. Mice receiving a single i.p. injection of 20 mg/kg of AG126 and two hours later an i.p. injection of 20 mg/kg of doxorubicin.
The % mortality in each of the above groups was determined by scoring the number of dead mice every day until 10 days after injection.

[2] = system: primary rat cardiomyocytes cultures; experiment: Doxorubicin-induced cardiotoxicity in vitro (cellular beating); assay type: cell-based; details: doxorubicin 10 μM alone; 24 hours
Experimental: The cardiomyocyte cultures were divided into the following, four groups receiving:
Cells receiving doxorubicin at a concentration of 10 μM; and
The rate of beats-of clusters of cardiomyocytes (“mini-hearts”) was determined 24 hours after beginning of incubation.

CD1 mice [3] = experiment: Doxorubicin lymphotoxicity (weight of spleen and thymus); assay type: in vivo; details: doxorubicin 10 mg/kg i.p. alone; 72 hours
Experimental: 72 hours after doxorubicin administration the mice were sacrificed and the weight of the spleen and thymus of the mice was determined as parameters of lymphotoxicity. Each experimental group consisted of three mice and the results are mean no. of cells±SD. As control, the mice received an injection of the vehicle only instead of doxorubicin.

MCA-105 fibrosarcoma = MCA-105 fibrosarcoma lung metastases in mice; assay type: in vivo; details: for weight of the lungs of tumor bearing mice: single agent: AG1801 5 mg/kg, cisplatin 10 mg/kg or doxorubicin 10 mg/kg, 4 days after inoculation (FIG. 25)
Experimental: (§2) 2×10^5/mouse MCA-105 fibrosarcoma cells or Lewis Lung carcinoma cells and 5×10^4/mouse B-16 melanoma cells were injected into the tail vein of C57BL mice.
(§3) Twenty-four days after tumor inoculation, mice were sacrificed, lungs weighed and the number of metastases were scored. Each group contained 5 mice and the results are expressed as the means lungs' weights±SE.
C57BL mice were divided into the following groups:
Mice injected i.v. at the age of 6 weeks with 2×10^5 fibrosarcoma MCA105 cells and 4 days' later, receiving an injection comprising the vehicle only;
Mice injected i.v. at the age of 6 weeks with 2×10^5 fibrosarcoma MCA105 cells and 4 days' later, injected with 10 mg/kg of doxorubicin;

SK-28 human melanoma = SK-28 human melanoma tumor xenografts in nude mice; assay type: in vivo
Experimental: CD1 athymic mice (nu/nu) were inoculated i.v. with 4×10^5/mouse SK-28 human melanoma. Doxorubicin (4 mg/kg) was injected i.p. 4 days after tumor inoculation.

CD1 mice [4] = experiment: Doxorubicin induced myelotoxicity (femur bone marrow nucleated cells, CFU); details: doxorubicin 10 mg/kg i.p. alone; 3 days (FIG. 12B)
Experimental: CD1 mice were divided into the following groups:
Mice receiving an i.p. injection of doxorubicin (10 mg/kg) alone;
Mice receiving one injection of the vehicle and two hours later an i.p. injection of doxorubicin (10 mg kg,).
3 days later, the number of bone marrow nucleated cells and colony forming units (CFU) in the femurs of the treated mice was determined (Nikerich, D. A., et al., J. Immunopharmacol., 8:299-313, 1986). Each group contained 3 mice and the results are expressed as a means±SD.
The number of femur nucleated bone marrow cells in the treated mice was determined three days (FIG. 13A) and at various times (FIG. 13B) post doxorubicini administration.
CD1 mice were divided into five groups:
Mice receiving the vehicle alone;
Mice receiving doxorubicin (10 mg/kg) alone;
Three days after doxorubicin administration, the mice were sacrificed and the number of nucleated cells in bone marrow was determined as described above.

[5] = system: A9 mouse fibroblastic cells; experiment: TNF-α-induced apoptosis and Go/G1 arrest (FACS, propidium iodide); assay type: cell-based
Experimental: In order to test the effect of tyrphostins on the TNF-α-induced apoptosis of the cells, A9 mouse fibroblastic cells were incubated for two hours with cycloheximide (50 μg/ml) after which the various tyrphostins were added at a final concentration of 20 μM except AG1801 that was added at the final concentration of 5 μM. Following one hour incubation with the tyrphostins, TNF-α was added to the cells at a concentration of 0.2 ng/ml and the cells were incubated for an additional ten hours.

A-9 cells = experiment: TNF-induced cytotoxicity in vitro; assay type: cell-based, mouse; details: AG (20 μM)
Experimental: Following one hour incubation with the tyrphostins, TNF-α was added to the cells at a concentration of 0.2 ng/ml and the cells were incubated for an additional ten hours. At the end of ten hours, the cell cultures were analyzed by FACS using propidium iodide and the extent of apoptosis in each of the cell cultures (seen as DNA fragmentation) was determined (see Novogrodsky, A., et al., Science, 264:1319-1322, 1994).
The effect of tyrphostins on TNF-induced cytotoxicity was determined in vitro using A-9 cells as described in Example 39 above.

CD1 mice [6] = experiment: LPS-induced lethal toxicity in vivo; details: tyrphostin 20 mg/kg i.p. two hours prior to E. coli LPS […] i.p.
Experimental: In addition, the effect of tyrphostin on TNF mediated cytotoxicity in vivo was determined in mice injected with LPS (which induces TNF toxicity in vivo). E. coli LPS the concentration of 1.3 mg/mouse was injected i.p. to CD1 mice. While control mice were injected in addition with the vehicle only, the remaining mice were injected with the various tyrphostins (20 mg/kg) i.p. two hours prior to LPS injection.

CD1 mice [7] = system: CD1 mice
Text: Each experimental group consisted of three mice and the results shown are the mean number of cells in a group±SD.

CD1 mice [8] = experiment: Cisplatin nephrotoxicity: serum creatinine and BUN; assay type: in vivo; details: tyrphostin 10 mg/kg i.p. 2 h before cisplatin 14 mg/kg i.p.; four days (FIG. 5)
Text: Mice in the control croup received injections of the vehicle only (a stock solution of ethanol: chemaphore (50:50) diluted with saline). […] Each group consisted of three mice and the results are shown as mean levels of the measured parameter±SD.

CD1 female mice = experiment: 5 FU myelotoxicity (bone marrow nucleated cells); assay type: in vivo; details: 5 FU 80 mg/kg i.p. alone; five days (FIG. 15)
Experimental: CD1 female mice were divided into the following groups:
A control group receiving a single i.p. injection of the vehicle only (co-solvent: propylene carbonate-cremophor-saline);
Mice receiving a single i.p. injection of 5-fluorouracil (5 FU) at a dose of 80 mg/kg;
Five days after the administration of 5 FU to the mice, the mice were sacrificed and the number of nucleated cells in the bone marrow of one femur, were counted. Each group of mice consisted of two or three mice and the results shown are the mean number of cells counted±SD.

CD1 mice [9] = experiment: Reduction of cisplatin-caused mouse mortality; assay type: in vivo; details: cisplatin 14 mg/kg alone
Text: as §1

CD1 mice [10] = experiment: Histopathological analysis of kidneys and small intestines after cisplatin; assay type: in vivo
Experimental: Histopathological analysis of the kidneys and small intestines of the non-treated and treated mice was performed using slices from formaline fixed tissues stained with hematoxylin eosin.

[11] = system: Lewis Lung carcinoma cells; experiment: Lewis lung carcinoma lung metastases in mice; assay type: in vivo; details: agent by itself: cisplatin 4 mg/kg or AG1714 20 mg/kg (FIG. 21B)
Experimental: as §2, §3

[12] = system: human ovary carcinoma (OVCAR-3) cells; experiment: OVCAR-3 human ovary carcinoma tumor volume in athymic mice; assay type: in vivo; details: agent by itself: cisplatin 4 mg/kg or AG1714 20 mg/kg; twenty days (FIG. 23)
Experimental: Athymic mice were inoculated subcutaneously (s.c.) with human ovary carcinoma (OVCAR-3) cells (3×10^6 cells/site). […] Twenty days post tumor inoculation the short (S) and long (L) diameters of the tumor were measured and the tumor volume (V) was calculated according to the formula:
Each group contained 5 mice and the results are expressed as the means±SE.

[13] = Table 6A, Doxorubicin (8 mg/kg) alone
[14] = Table 5A, Doxorubicin (4 mg/kg) alone
[15] = Table 5A, Doxorubicin (8 mg/kg) alone
[16] = Table 5B, Doxorubicin (4 mg/kg) alone
[17] = Table 5B, Doxorubicin (8 mg/kg) alone
[18] = Cyclophosphamide (50 mg/kg) alone (−), 72 hours

Experimental for B-16 melanoma: Mice were injected i.v. with 2×10^5 B-16 melanoma cells and 4 days after tumor inoculation each mouse received a single i.p. injection of doxorubicin (4 mg/kg or 8 mg/kg).

COc1cccc2c1C(=O)c1c(O)c3c(c(O)c1C2=O)C[C@@](O)(C(=O)CO)C[C@@H]3O[C@H]1C[C@H](N)[C@H](O)[C@H](C)O1 [Doxorubicin, doxorubicin]
mortality of the mice (CD1 mice [1]; 10 i.p. doxorubicin injections 5 mg/kg over 21 days, alone): high mortality | % mortality (CD1 mice [1]; doxorubicin 20 mg/kg i.p. alone, within a week after injection): 90% | Cellular beating (beats/min) [2]: 15 ± 1.3 beats/min | number of beats per minute relative to control cultures [2]: about 20% | weight of spleens and thymuses (CD1 mice [3]): significant reduction in the weight of spleens | Mortality (dead/total) (MCA-105 fibrosarcoma; Table 6A, Doxorubicin (4 mg/kg) alone): 0/5 | Lungs' weight (mg + SEM) (MCA-105 fibrosarcoma; [13]): 170 ± 4 mg | Mortality (dead/total) (MCA-105 fibrosarcoma; [13]): 5/8 | Mortality, percent in brackets (MCA-105 fibrosarcoma; [13]): 62.5% | weight of the lungs of tumor bearing mice (MCA-105 fibrosarcoma): reduced the weight of the mice's lungs to a weight similar to that of control non tumor bearing mice | growth of the SK-28 tumor (lungs' weight, metastases) (SK-28 human melanoma; agent by itself: doxorubicin 4 mg/kg or AG1714 20 mg/kg, 24 days (FIG. 22)): markedly suppressed the growth | Mortality (dead/total) (B-16 melanoma; [14]): 0/4 | No. of lungs' metastases (+ SD) (B-16 melanoma; [14]): 7 ± 4 | Mortality (dead/total) (B-16 melanoma; [15]): 3/4 | Mortality, percent in brackets (B-16 melanoma; [15]): 75% | No. of lungs' metastases (+ SD) (B-16 melanoma; [15]): 1 | Lungs' weight (mg + SEM) (B-16 melanoma; [16]): 306 ± 12 mg | Mortality (dead/total) (B-16 melanoma; [16]): 0/6 | Mortality (dead/total) (B-16 melanoma; [17]): 7/8 | Mortality, percent in brackets (B-16 melanoma; [17]): 88% | reduction in CFU (CD1 mice [4]): 55%

N#CC(C#N)=Cc1ccc([N+](=O)[O-])c(O)c1 [AG126]
Apoptosis (%) ([5]; TNF-α (0.2 ng/ml) +, ten hours, cycloheximide 50 μg/ml, tyrphostins 20 μM, except AG1801 5 μM): 19.4% | Apoptosis (%) ([5]; TNF-α −, cycloheximide 50 μg/ml, tyrphostins 20 μM, except AG1801 5 μM): 8.3% | live cells, % of control (A-9 cells; TNF 0.05 ng/ml): 75 % of control | live cells, % of control (A-9 cells; TNF 0.2 ng/ml): 49 % of control | live cells, % of control (A-9 cells; TNF 1.0 ng/ml): 33 % of control | live cells, % of control (A-9 cells; TNF None): 107 % of control | % alive mice (CD1 mice [6]): 80% | alive/total (CD1 mice [6]): 4/5

TNF-α
Cell cycle % G1 ([5]; TNF-α (0.2 ng/ml) alone): 85.8% | Cell cycle % G2 + M ([5]; TNF-α (0.2 ng/ml) alone): 6.6% | Cell cycle % S ([5]; TNF-α (0.2 ng/ml) alone): 7.6% | Apoptosis (%) ([5]; Table 9, TNF-α (0.2 ng/ml) alone): 28.7%

O=P1(N(CCCl)CCCl)NCCCO1 (stereo not drawn) [Cyclophosphamide, cyclophosphamide]
Nucleated cells in bone marrow (× 10^6) (CD1 mice [7]; [18]): 6.2 × 10^6 | Spleen (CD1 mice [7]; [18]): 52 mg | Thymus (CD1 mice [7]; [18]): 39 mg | number of nucleated cells in the bone marrow, spleen and thymus (CD1 mice [7]; cyclophosphamide 50 mg/kg alone): significant reduction in the number of nucleated cells

N#CC(=Cc1ccc([N+](=O)[O-])cc1)C(N)=S [AG1744]
nephrotoxicity of cisplatin (serum creatinine level) (CD1 mice [8]): markedly reduced the nephrotoxicity of cisplatin

O=c1[nH]cc(F)c(=O)[nH]1 [5 FU, 5-fluorouracil]
number of nucleated cells in the bone marrow (CD1 female mice): decrease in the number of nucleated cells

N.N.[Cl][Pt][Cl] [Cisplatin, cisplatin]
mortality (CD1 mice [9]): all the mice in the group receiving cisplatin alone died within ten days | histopathology of kidneys (CD1 mice [10]; cisplatin 14 mg/kg alone (FIG. 7B)): large proteinaceous plaques in the proximal tubals; also recorded: large proteinaceous plaques in the proximal tubules | histopathology of small intestine (CD1 mice [10]; cisplatin 14 mg/kg alone (FIG. 7E)): severe necrosis and disintegration of the columnar intestinal epithelial cells; also recorded: severe necrosis and damage | anti-tumor effect (lungs' weight, established lung metastases) (MCA-105 fibrosarcoma; agent by itself: cisplatin 4 mg/kg or AG1714 20 mg/kg i.p., 24 days (FIG. 21A)): markedly inhibited the growth | weight of the lungs of tumor bearing mice (MCA-105 fibrosarcoma): reduced the weight of the mice's lungs to a weight similar to that of control non tumor bearing mice | anti-tumor effect (lungs' weight, established lung metastases) [11]: partial anti-tumor effect | weight of the lungs of tumor bearing mice (SK-28 human melanoma; single agent: cisplatin or AG1801 (FIG. 26)): reduced the weight of the lungs of the tumor bearing mice to an extent | anti-tumor effect (tumor volume) [12]: marked anti-tumor effect | anti-tumor effect (lungs' weight, established lung metastases) (B-16 melanoma; agent alone: Cisplatin (4 mg/kg) or AG1714 (20 mg/kg) (FIG. 21C)): not effective
